Test results reported in publication PMC12965331 (Biochemistry, 2025).

Columns and labels:
NSP14 ExoN = conditions: cited from earlier work
HNMT = HNMT (Homo sapiens, UniProt P50135); assay: HNMT specificity screen; type: biochemical
NSP10–14 ExoN = NSP10–14 ExoN (Severe acute respiratory syndrome coronavirus 2, UniProt P0DTD1); type: biochemical, SARS-CoV-2
RNase H = RNase H (Escherichia coli, UniProt P0A7Y4)
RNase H, sequence (P0A7Y4 whole entry): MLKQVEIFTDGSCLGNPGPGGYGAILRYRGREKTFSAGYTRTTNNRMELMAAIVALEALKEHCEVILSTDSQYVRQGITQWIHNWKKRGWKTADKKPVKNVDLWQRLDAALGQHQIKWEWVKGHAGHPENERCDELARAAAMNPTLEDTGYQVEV

HNMT, sequence (P50135 whole entry): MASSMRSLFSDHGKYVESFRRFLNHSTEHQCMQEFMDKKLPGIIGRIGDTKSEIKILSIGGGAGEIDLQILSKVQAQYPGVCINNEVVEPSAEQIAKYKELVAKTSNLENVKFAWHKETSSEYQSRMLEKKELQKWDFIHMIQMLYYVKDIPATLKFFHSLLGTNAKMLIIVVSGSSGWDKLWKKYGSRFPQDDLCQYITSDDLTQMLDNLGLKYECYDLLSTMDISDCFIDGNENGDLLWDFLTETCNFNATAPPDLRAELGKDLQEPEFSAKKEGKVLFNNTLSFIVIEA

SMILES | inhibition of NSP14 ExoN activity, affinity (NSP14 ExoN) | activity against HNMT (off-target) (HNMT) | effect on VMAX, ExoN RNA substrate (NSP10–14 ExoN) | mechanism of inhibition with respect to ExoN RNA substrate (NSP10–14 ExoN) | change in KM for ExoN RNA substrate (NSP10–14 ExoN; concentrations below 2 μM of compound) | activity against RNase H (off-target) (RNase H) | potency difference between NSP14 ExoN and RNase H (RNase H)
O=C1C=C2C(=CCOC2O)O1 (stereo not shown) [Patulin] | micromolar affinity |  |  |  |  |  | 
CC(=O)N1CCN(c2ccc(C(=O)N3CCN(Cc4ccccc4)CC3)nn2)C(=O)C1 [NCGC00537446] |  | some activity | more clearly influenced | noncompetitive | no significant change | some activity | greater than 10 fold
